Measured values published in US20100227307A1, “ERGOTHIONEINE AND/OR ITS DERIVATIVES AS A CELL PRESERVATIVE” (priority 2007, published 2010).

Legend:
[1] = system: Stallion named IKE's semen (sperm cells); experiment: Post-thaw motility of frozen stallion semen in five extenders (Sperm Vision analysis); type: cell-based; conditions: ergothioneine added to traditional semen extender compositions
Experimental: The resulting sperm pellet was then split 5 ways and resuspended with the five different extenders tested. DMSO and EQUIPRO® cryoguards were frozen right away. […] Semen was frozen using the ice cube freezer. Semen straws were thawed at 37° C. for 1 minute. Semen was diluted at one to ten in EQUIPRO® concentrate to analyze using sperm vision. All five extenders were measured for motility (total motility and forward progressive motility, FPM) using Sperm Vision® software, a high-resolution, rapid scan digital camera on a plain glass slide. Measurements were taken at 0 min post thaw, 30 min and 60 min post thaw.

liver tissue of rats = conditions: exogenous L-ergothioneine; cited from earlier work
mouse liver = conditions: cited from earlier work

Compound: C[N+](C)(C)[C@@H](Cc1c[nH]c(=S)[nH]1)C(=O)[O-] [ergothioneine, L-ergothioneine]
- sperm cell survival [1]: significant improvement
- surviving cell motility [1]: significant improvement
- lipid peroxidation by toxic compounds (liver tissue of rats): prevent lipid peroxidation
- LPO formation (mouse liver): inhibited LPO formation
- decomposition of existing LPO (mouse liver): enhanced the decomposition of existing LPO
